The text below walks through data of ChEMBL document CHEMBL1150009, “Quinine analogs as non-peptide calcitonin gene-related peptide (CGRP) receptor antagonists” (Bioorg Med Chem Lett, 1997).

Assay [1] addresses T1, Calcitonin gene-related peptide type 1 receptor (Homo sapiens, UniProt O60894+Q16602). The assay can be described thus: Displacement of [125I]hCGRP human Calcitonin gene-related peptide type receptor expressed in SK-N-MC neuroblastoma cell membranes.
For assay [2], the system named is SK-N-MC. Put plainly: In vitro inhibition of CGRP-mediated cAMP production in SK-N-MC cells. Type of assay: functional, cell-based. The note with it: Homo sapiens.
The nature of assay [3]: Inhibitory concentration in vitro using porcine lung membrane (to identify non-peptide antagonist of the CGRP receptor). Type of assay: functional, cell membranes, Sus scrofa.
Assay [4] can be described thus: Compound (up to 30 uM) was tested in vitro for percent effectiveness for ligand binding to GLP-1 receptors.
For assay [5], the target named is T2, Type-1 angiotensin II receptor A (Rattus norvegicus) (UniProt P25095).
T2 sequence (whole entry): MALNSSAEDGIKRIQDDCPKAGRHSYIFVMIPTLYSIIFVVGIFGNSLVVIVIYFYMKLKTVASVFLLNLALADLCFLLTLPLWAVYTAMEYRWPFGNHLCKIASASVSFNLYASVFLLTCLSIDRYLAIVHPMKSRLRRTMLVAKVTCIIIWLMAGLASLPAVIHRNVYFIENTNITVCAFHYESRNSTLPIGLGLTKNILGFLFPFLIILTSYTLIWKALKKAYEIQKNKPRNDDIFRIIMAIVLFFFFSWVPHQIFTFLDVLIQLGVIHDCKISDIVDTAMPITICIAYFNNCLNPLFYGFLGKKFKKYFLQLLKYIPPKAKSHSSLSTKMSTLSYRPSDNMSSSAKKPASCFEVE
Put plainly: Compound (up to 30 uM) was tested in vitro for percent effectiveness for ligand binding to Angiotensin II receptor.

Assay [6] addresses T3, Endothelin receptor type B (Homo sapiens) (UniProt P24530).
T3 sequence (whole entry): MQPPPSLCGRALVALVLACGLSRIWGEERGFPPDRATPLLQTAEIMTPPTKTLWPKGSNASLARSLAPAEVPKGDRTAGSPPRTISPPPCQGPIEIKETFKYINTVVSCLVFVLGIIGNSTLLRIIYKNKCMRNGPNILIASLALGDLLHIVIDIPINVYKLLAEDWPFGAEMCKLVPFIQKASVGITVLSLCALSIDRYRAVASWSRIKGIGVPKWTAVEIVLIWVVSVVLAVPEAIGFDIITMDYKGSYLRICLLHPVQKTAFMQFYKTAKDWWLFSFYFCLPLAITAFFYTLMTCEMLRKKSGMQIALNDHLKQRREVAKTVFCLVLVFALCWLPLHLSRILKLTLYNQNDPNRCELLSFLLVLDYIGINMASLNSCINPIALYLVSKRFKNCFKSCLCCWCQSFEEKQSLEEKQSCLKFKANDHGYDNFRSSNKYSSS
Put plainly: Compound (up to 30 uM) was tested in vitro for percent effectiveness for ligand binding to ETB receptors.

Assay [7] deals with T4, Vasoactive intestinal peptide receptor (Gallus gallus) (UniProt A5A0U0).
T4 sequence (whole entry): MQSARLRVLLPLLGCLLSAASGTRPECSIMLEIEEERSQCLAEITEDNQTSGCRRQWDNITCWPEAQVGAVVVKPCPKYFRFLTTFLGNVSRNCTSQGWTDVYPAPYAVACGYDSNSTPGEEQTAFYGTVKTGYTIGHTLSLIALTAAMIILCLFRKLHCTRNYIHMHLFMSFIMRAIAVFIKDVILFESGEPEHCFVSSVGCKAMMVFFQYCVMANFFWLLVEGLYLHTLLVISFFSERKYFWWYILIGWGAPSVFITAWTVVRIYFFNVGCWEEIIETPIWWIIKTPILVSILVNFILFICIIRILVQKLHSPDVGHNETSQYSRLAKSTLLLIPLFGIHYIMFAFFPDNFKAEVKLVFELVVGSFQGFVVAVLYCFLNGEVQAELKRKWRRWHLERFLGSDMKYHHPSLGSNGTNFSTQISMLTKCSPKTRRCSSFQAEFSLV
Put plainly: Compound (up to 30 uM) was tested in vitro for percent effectiveness for ligand binding to Vasoactive intestinal peptide receptor.

For assay [8], the target named is G-protein coupled receptor 182 (Homo sapiens) (UniProt O15218). Put plainly: Compound (up to 30 uM) was tested in vitro for percent effectiveness for ligand binding to Adrenomedullin receptor.
Sequence of G-protein coupled receptor 182 (Homo sapiens) (O15218 whole entry): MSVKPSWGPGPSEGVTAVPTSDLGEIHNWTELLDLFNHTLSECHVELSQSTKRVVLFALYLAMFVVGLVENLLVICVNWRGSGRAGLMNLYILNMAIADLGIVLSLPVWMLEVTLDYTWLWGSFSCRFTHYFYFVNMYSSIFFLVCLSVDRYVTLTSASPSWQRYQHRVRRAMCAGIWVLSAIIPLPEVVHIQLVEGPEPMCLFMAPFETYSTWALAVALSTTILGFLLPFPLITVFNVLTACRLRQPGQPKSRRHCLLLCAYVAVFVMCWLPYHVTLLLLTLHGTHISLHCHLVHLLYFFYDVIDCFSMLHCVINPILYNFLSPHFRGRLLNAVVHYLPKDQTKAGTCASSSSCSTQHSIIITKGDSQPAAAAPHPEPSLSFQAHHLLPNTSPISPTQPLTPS
The target of assay [9] is T5, Endothelin-1 receptor (Homo sapiens) (UniProt P25101).
T5 sequence (whole entry): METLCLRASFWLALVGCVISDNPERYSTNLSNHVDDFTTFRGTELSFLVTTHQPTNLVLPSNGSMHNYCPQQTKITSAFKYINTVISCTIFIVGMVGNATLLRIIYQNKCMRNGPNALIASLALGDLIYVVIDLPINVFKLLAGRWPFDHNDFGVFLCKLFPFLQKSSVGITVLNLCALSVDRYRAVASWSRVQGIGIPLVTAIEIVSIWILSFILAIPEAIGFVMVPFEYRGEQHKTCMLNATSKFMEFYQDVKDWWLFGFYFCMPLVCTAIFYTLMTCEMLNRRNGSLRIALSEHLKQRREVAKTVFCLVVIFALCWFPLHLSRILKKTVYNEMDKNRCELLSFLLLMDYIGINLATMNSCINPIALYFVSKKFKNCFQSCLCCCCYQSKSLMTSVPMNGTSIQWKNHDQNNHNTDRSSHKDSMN
Put plainly: Compound (up to 30 uM) was tested in vitro for percent effectiveness for ligand binding to ETA receptors.

For assay [10], the target named is T1, Calcitonin gene-related peptide type 1 receptor. Put plainly: Compound was tested in vitro for its binding affinity towards recombinant human Calcitonin gene-related peptide type receptor (membranes of HEK293 cells) using [125I]hCGRP as radioligand. Type of assay: cell membranes.

Each structure is given as a SMILES string. Bounds are passed on as bounds.

T1 sequence (Q16602 whole entry, one chain of several): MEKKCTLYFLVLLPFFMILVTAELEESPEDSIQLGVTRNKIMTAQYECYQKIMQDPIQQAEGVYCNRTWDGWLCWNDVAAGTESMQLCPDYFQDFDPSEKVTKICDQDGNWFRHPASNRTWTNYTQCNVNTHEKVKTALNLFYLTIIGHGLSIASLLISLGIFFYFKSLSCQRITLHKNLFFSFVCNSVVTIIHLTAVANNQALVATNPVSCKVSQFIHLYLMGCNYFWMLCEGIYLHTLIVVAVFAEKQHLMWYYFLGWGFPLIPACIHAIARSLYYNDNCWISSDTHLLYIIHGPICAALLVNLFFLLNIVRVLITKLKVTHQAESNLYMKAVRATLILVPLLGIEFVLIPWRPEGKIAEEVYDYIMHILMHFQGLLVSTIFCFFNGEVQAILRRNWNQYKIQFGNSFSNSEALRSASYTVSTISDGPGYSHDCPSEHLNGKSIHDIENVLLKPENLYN

`CCC1CN2CCC1CC2[C@H](O)c1cc(-c2ccsc2)nc2ccc(OC)cc12` (stereo partly specified): the IC50 in assay [1] is more than 100 µM.
As to `CCC1CN2CCC1CC2[C@H](O)c1cc(-c2cccc(C(F)(F)F)c2)nc2ccc(OC)cc12` (stereo partly specified), the 50% inhibitory concentration (IC50) in assay [1] worked out at 9.9 µM; in assay [2] it was 20 µM.
With `CCC1CN2CCC1CC2[C@H](O)c1cc(-c2ccc(OC)cc2)nc2ccc(OC)cc12` (stereo partly specified), the half-maximal inhibitory concentration (IC50) in assay [1] was more than 100 µM.
In the case of `CCC1CN2CCC1CC2[C@H](O)c1cc(-c2ccc3c(c2)OCO3)nc2ccc(OC)cc12` (stereo partly specified), the IC50 was determined as 74 µM in assay [1] and 60 µM in [2].
For the compound `CCC1CN2CCC1CC2[C@H](O)c1cc(-c2ccc(Oc3ccccc3)cc2)nc2ccc(OC)cc12` (stereo partly specified), the IC50 in assay [1] was 12 µM; in assay [2], 22 µM.
Consider `CCC1CN2CCC1CC2[C@H](O)c1cc(-c2cccc3ccccc23)nc2ccc(OC)cc12` (stereo partly specified), for which the half-inhibitory concentration (IC50) was 33 µM in [1] and 23 µM in [2].
Taken in the same sequence, the figures for `CCC1CN2CCC1CC2[C@H](O)c1cc(-c2ccccc2)nc2ccc(OC)cc12` (stereo partly specified) were 96 µM and 65 µM.
Taken in the same sequence, the figures for `CCC1CN2CCC1CC2[C@H](O)c1cc(-c2ccc(C(F)(F)F)cc2)nc2ccc(OC)cc12` (stereo partly specified) were 5.2 µM and 24 µM.
With `CCC1CN2CCC1CC2[C@H](O)c1cc(-c2cccc(N)c2)nc2ccc(OC)cc12` (stereo partly specified), the half-inhibitory concentration (IC50) in [1] and in [2] was more than 100 µM each time.
As for `CCC1CN2CCC1CC2[C@H](O)c1cc(-c2cccc([N+](=O)[O-])c2)nc2ccc(OC)cc12` (stereo partly specified), the IC50 in assay [1] stood at 41 µM.
`CCC1CN2CCC1CC2[C@H](O)c1cc(-c2ccc(F)c(Cl)c2)nc2ccc(OC)cc12` (stereo partly specified): the concentration for half-maximal inhibition (IC50) was found to be 17 µM in assay [1] and 14 µM in [2].
On to `CCC1CN2CCC1CC2[C@H](O)c1cc(-c2ccc(Cl)cc2)nc2ccc(OC)cc12` (stereo partly specified), for which the IC50 came to 6 µM in assay [3], 5.9 µM in [1], 26 µM in assay [2] and 5.5 µM in [10]. The inhibition in assay [4], in assay [5], in assay [6], in assay [7], in [8] and in assay [9] was less than 20% in each case.
In the case of `CCC1CN2CCC1CC2[C@H](O)c1cc(-c2ccc(Cl)cc2Cl)nc2ccc(OC)cc12` (stereo partly specified), the figures for the IC50 in assay [1] and in [2] were 37 µM and 28 µM, respectively.
